From patent US20050112573A1, “Method of detecting toxic substance” (priority 2001, published 2005)

Test system: yeast genes (level of expressed mRNA)
Test: DNA chip analysis of expressed mRNA of yeast genes after 2 h culture with a toxic chemical substance
Type: cell-based, Saccharomyces cerevisiae S288C
Procedure: Yeast (Saccharomyces cerevtisiae S288C (α SUC2mal mel gap2 CUP1)) were cultured at 25° C. on YPD medium (yeast extract 1%, polypepton 2%, glucose 2%). One of toxic chemical substances was added to the cell at logarithmic growth phase, and the cell was further cultured for two hours. Cell was cultured without any chemical substance in the same condition, and was used as control. Concentrations of the chemical substances were defined to inhibit the growth of the yeast but not lead to death.
After the completion of cultivation, the culture was centrifuged to collect the cells. To the cells, sodium acetate buffer (50 mM sodium acetate, 10 mM EDTA, 1% SDS) was added, and the mixture was shaken at 65° C. for five minutes, followed by returning to room temperature, and obtaining the supernatant, which procedure was repeated two times. To the supernatant, ½ amount of a solution of phenol/chloroform was added, and the mixture was centrifuged to give a supernatant, which was added with an equal amount of chloroform, and the mixture was centrifuged to give a supernatant. To the supernatant, an equal amount of isopropanol containing 0.3 M sodium acetate was added, and the mixture was allowed to stand at room temperature for 30 minutes, after which the mixture was centrifuged to give a sediment of the whole RNAs. Seventy % ethanol was added to the sediment, and the mixture was again centrifuged to give a sediment, which was then dried and dissolved in water. mRNA was isolated from the whole RNAs as followings. In view of the fact that a poly A chain is attached to the 3′ terminus of mRNA, a polynucleotide having a poly T structure which was immobilized on the surface of latex beads was used to trap the mRNA, and then the mRNA was washed and eluted with spine column (Oligotex-dT30<Super>mRNA Purification Kit, Takara). Reverse transcription of the mRNA was conducted with a reverse transcriptase (Super Script II Reverse Transcriptase; catalogue No. 18064-014, GibcoBRL) using fluorescence-labeled nucleotides to give cDNAs that were introduced with Cy3-dUTP or Cy5-dUTP during the reverse transcription.
The labeled cDNAs were dissolved in TE buffer (10 mM Tris-HCl/1 mM EDTA, pH8.0), and the solution was dropped on the DNA chip containing the whole genes of yeast (DNA Chip Research Inc. Japan) so that the cDNAs were hybridized on the DNA chip at 65° C. for over 12 hours. The fluoresces intensity of the DNA chip was read with a scanner, and the ratio relative to the fluorescence intensity resulting from the absence of chemical substance was estimated as the following, which is shown in Tables 1 to 9: [formula]
In the Tables, “Intensity” indicated in the rightmost column is a value of the level of expressed mRNA of each gene in control cells as divided by the average level of the expressions of the whole genes.

Question: How did the “The level of expressed mRNA in the presence of chemical substance/” value (yeast gene YFL010C, ratio to control without chemical substance, 2 h culture) turn out when γ-hexachlorocyclohexane [(7)] was run?
Answer: 1.5

Question: What about the “The level of expressed mRNA in the presence of chemical substance/” value (yeast gene YFL024C, ratio to control without chemical substance, 2 h culture) of the same substance?
Answer: 3.3

Question: What about the “The level of expressed mRNA in the presence of chemical substance/The level of expressed mRNA in the absence of chemical substance” value (yeast gene YFL028C) of the same substance?
Answer: 2.0

Question: What about the “The level of expressed mRNA in the presence of chemical substance/” value (yeast gene YFL032W, ratio to control without chemical substance, 2 h culture) of the same substance?
Answer: 1.1

Question: And the “The level of expressed mRNA in the presence of chemical substance/The level of expressed mRNA in the absence of chemical substance” value (yeast gene YFL043C)?
Answer: 1.8

Question: What about the “The level of expressed mRNA in the presence of chemical substance/in the absence of chemical substance” value (yeast gene YGL035C) of the same substance?
Answer: 1.2

Question: And the “The level of expressed mRNA in the presence of chemical substance/” value (yeast gene YGL037C, ratio to control without chemical substance, 2 h culture)?
Answer: 2.9

Question: And the “The level of expressed mRNA in the presence of chemical substance/” value (yeast gene YGL047W, ratio to control without chemical substance, 2 h culture)?
Answer: 1.7

Question: And the “The level of expressed mRNA in the presence of chemical substance/” value (yeast gene YGL053W, ratio to control without chemical substance, 2 h culture)?
Answer: 3.7

Question: And the “The level of expressed mRNA in the presence of chemical substance/” value (yeast gene YGL121C, ratio to control without chemical substance, 2 h culture)?
Answer: 4.7

Question: What about the “The level of expressed mRNA in the presence of chemical substance/The level of expressed mRNA in the absence of chemical substance” value (yeast gene YGL158W) of the same substance?
Answer: 1.3

Question: And the “The level of expressed mRNA in the presence of chemical substance/” value (yeast gene YGL199C, ratio to control without chemical substance, 2 h culture)?
Answer: 1.3

Question: And the “The level of expressed mRNA in the presence of chemical substance/The level of expressed mRNA in the absence of chemical substance” value (yeast gene YGL229C)?
Answer: 2.2

Question: And the “The level of expressed mRNA in the presence of chemical substance/” value (yeast gene YGR101W, ratio to control without chemical substance, 2 h culture)?
Answer: 1.5

Question: What about the “The level of expressed mRNA in the presence of chemical substance/” value (yeast gene YGR110W, ratio to control without chemical substance, 2 h culture) of the same substance?
Answer: 1.7

Question: What about the “The level of expressed mRNA in the presence of chemical substance/” value (yeast gene YGR130C, ratio to control without chemical substance, 2 h culture) of the same substance?
Answer: 1.3

Question: What about the “The level of expressed mRNA in the presence of chemical substance/The level of expressed mRNA in the absence of chemical substance” value (yeast gene YGR136W) of the same substance?
Answer: 1.5

Question: And the “The level of expressed mRNA in the presence of chemical substance/” value (yeast gene YGR154C, ratio to control without chemical substance, 2 h culture)?
Answer: 2.0

Question: And the “The level of expressed mRNA in the presence of chemical substance/The level of expressed mRNA in the absence of chemical substance” value (yeast gene YGR189C)?
Answer: 0.6

Question: And the “The level of expressed mRNA in the presence of chemical substance/The level of expressed mRNA in the absence of chemical substance” value (yeast gene YGR213C)?
Answer: 7.0

Question: And the “The level of expressed mRNA in the presence of chemical substance/” value (yeast gene YGR221C, ratio to control without chemical substance, 2 h culture)?
Answer: 1.2

Question: What about the “The level of expressed mRNA in the presence of chemical substance/The level of expressed mRNA in the absence of chemical substance” value (yeast gene YGR257C) of the same substance?
Answer: 2.4

Question: What about the “The level of expressed mRNA in the presence of chemical substance/in the absence of chemical substance” value (yeast gene YGR287C) of the same substance?
Answer: 2.2

Question: And the “The level of expressed mRNA in the presence of chemical substance/The level of expressed mRNA in the absence of chemical substance” value (yeast gene YHR004C)?
Answer: 1.5

Question: What about the “The level of expressed mRNA in the presence of chemical substance/The level of expressed mRNA in the absence of chemical substance” value (yeast gene YHR071W) of the same substance?
Answer: 1.0

Question: And the “The level of expressed mRNA in the presence of chemical substance/” value (yeast gene YHR138C, ratio to control without chemical substance, 2 h culture)?
Answer: 3.0

Question: And the “The level of expressed mRNA in the presence of chemical substance/The level of expressed mRNA in the absence of chemical substance” value (yeast gene YHR139C)?
Answer: 1.5

Question: What about the “The level of expressed mRNA in the presence of chemical substance/The level of expressed mRNA in the absence of chemical substance” value (yeast gene YHR142W) of the same substance?
Answer: 0.9

Question: And the “The level of expressed mRNA in the presence of chemical substance/” value (yeast gene YHR199C, ratio to control without chemical substance, 2 h culture)?
Answer: 1.1

Question: And the “The level of expressed mRNA in the presence of chemical substance/” value (yeast gene YIL023C, ratio to control without chemical)?
Answer: 1.2

Question: And the “The level of expressed mRNA in the presence of chemical substance/” value (yeast gene YIL041W, ratio to control without chemical substance, 2 h culture)?
Answer: 0.8

Question: And the “The level of expressed mRNA in the presence of chemical substance/” value (yeast gene YIL087C, ratio to control without chemical substance, 2 h culture)?
Answer: 1.8

Question: What about the “The level of expressed mRNA in the presence of chemical substance/The level of expressed mRNA in the absence of chemical substance” value (yeast gene YIL123W) of the same substance?
Answer: 0.5

Question: And the “The level of expressed mRNA in the presence of chemical substance/The level of expressed mRNA in the absence of chemical substance” value (yeast gene YIL140W)?
Answer: 0.5

Question: And the “The level of expressed mRNA in the presence of chemical substance/” value (yeast gene YJL057C, ratio to control without chemical substance, 2 h culture)?
Answer: 2.7

Question: And the “The level of expressed mRNA in the presence of chemical substance/” value (yeast gene YJL066C, ratio to control without chemical substance, 2 h culture)?
Answer: 1.6

Question: And the “The level of expressed mRNA in the presence of chemical substance/in the absence of chemical substance” value (yeast gene YJL070C)?
Answer: 1.4

Question: And the “The level of expressed mRNA in the presence of chemical substance/” value (yeast gene YJL082W, ratio to control without chemical substance, 2 h culture)?
Answer: 0.4

Question: And the “The level of expressed mRNA in the presence of chemical substance/The level of expressed mRNA in the absence of chemical substance” value (yeast gene YJL089W)?
Answer: 1.1

Question: What about the “The level of expressed mRNA in the presence of chemical substance/The level of expressed mRNA in the absence of chemical substance” value (yeast gene YJL116C) of the same substance?
Answer: 0.8

Question: And the “The level of expressed mRNA in the presence of chemical substance/” value (yeast gene YJL151C, ratio to control without chemical substance, 2 h culture)?
Answer: 1.4

Question: And the “The level of expressed mRNA in the presence of chemical substance/” value (yeast gene YJL152W, ratio to control without chemical substance, 2 h culture)?
Answer: 1.2

Question: What about the “The level of expressed mRNA in the presence of chemical substance/” value (yeast gene YJL161W, ratio to control without chemical substance, 2 h culture) of the same substance?
Answer: 3.6

Question: What about the “The level of expressed mRNA in the presence of chemical substance/in the absence of chemical substance” value (yeast gene YJL167W) of the same substance?
Answer: 1.5

Question: What about the “The level of expressed mRNA in the presence of chemical substance/” value (yeast gene YJL171C, ratio to control without chemical substance, 2 h culture) of the same substance?
Answer: 1.4

Question: What about the “The level of expressed mRNA in the presence of chemical substance/in the absence of chemical substance” value (yeast gene YJL216C) of the same substance?
Answer: 1.5

Question: What about the “The level of expressed mRNA in the presence of chemical substance/The level of expressed mRNA in the absence of chemical substance” value (yeast gene YJR004C) of the same substance?
Answer: 0.4

Question: And the “The level of expressed mRNA in the presence of chemical substance/” value (yeast gene YJR008W, ratio to control without chemical substance, 2 h culture)?
Answer: 2.9

Question: What about the “The level of expressed mRNA in the presence of chemical substance/” value (yeast gene YJR054W, ratio to control without chemical) of the same substance?
Answer: 0.9

Question: What about the “The level of expressed mRNA in the presence of chemical substance/The level of expressed mRNA in the absence of chemical substance” value (yeast gene YJR086W) of the same substance?
Answer: 1.7

Question: What about the “The level of expressed mRNA in the presence of chemical substance/The level of expressed mRNA in the absence of chemical substance” value (yeast gene YKL008C) of the same substance?
Answer: 1.4

Question: And the “The level of expressed mRNA in the presence of chemical substance/The level of expressed mRNA in the absence of chemical substance” value (yeast gene YKL013C)?
Answer: 1.8

Question: And the “The level of expressed mRNA in the presence of chemical substance/The level of expressed mRNA in the absence of chemical substance” value (yeast gene YKL039W)?
Answer: 2.0

Question: And the “The level of expressed mRNA in the presence of chemical substance/The level of expressed mRNA in the absence of chemical substance” value (yeast gene YKL041W)?
Answer: 1.0

Question: And the “The level of expressed mRNA in the presence of chemical substance/” value (yeast gene YKL071W, ratio to control without chemical substance, 2 h culture)?
Answer: 3.7

Question: What about the “The level of expressed mRNA in the presence of chemical substance/” value (yeast gene YKL086W, ratio to control without chemical) of the same substance?
Answer: 0.7
